According to the supplement of paper PMC8671470:

Experiments:
Assay in all cases: cell viability (% survival relative to DMSO control, bortezomib = 0%); higher = less cytotoxic
Conditions in all cases: 72 h
[1] = tested on: LAMA-84
Method in brief: (§1)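 Seeding density for each of the 10 AML and 5 CML cell lines was titrated to the linear growth range. Cells went into 384-well plates pre-printed in duplicate with compounds at 1, 10, 100, 1000 or 10000 nM and were held for 72 h at 37 °C with 5% CO2. CellTiter-Glo luminescence then provided the readout. Percent survival is expressed relative to vehicle at 100% and a 10 µM positive control at 0%, averaged over duplicates.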

[2] = tested on: MOLM-13
Method in brief: as §1

[3] = tested on: Mono-Mac-6
Method in brief: as §1

[4] = tested on: SHI-1
Method in brief: as §1

Row | SMILES | cell viability ([1]; 1 nM) | cell viability ([1]; 10 nM) | cell viability ([1]; 100 nM) | cell viability ([1]; 1000 nM) | cell viability ([1]; 10000 nM) | cell viability ([2]; 1 nM) | cell viability ([2]; 10 nM) | cell viability ([2]; 100 nM) | cell viability ([2]; 1000 nM) | cell viability ([2]; 10000 nM) | cell viability ([3]; 1 nM) | cell viability ([3]; 10 nM) | cell viability ([3]; 100 nM) | cell viability ([3]; 1000 nM) | cell viability ([3]; 10000 nM) | cell viability ([4]; 1 nM) | cell viability ([4]; 10 nM) | cell viability ([4]; 100 nM) | cell viability ([4]; 1000 nM) | cell viability ([4]; 10000 nM)
1 | Clc1ccc2c(c1Cl)CNCC2 | 98.6% | 105% | 93.7% | 110% | 94.4% | 102% | 125% | 70.3% | 92.3% | 83.7% | 95.3% | 103% | 104% | 106% | 77.4% | 116% | 122% | 110% | 112% | 96.1%
2 | O=C(O)C(S)=Cc1c[nH]c2ccc(F)cc12 | 96.9% | 98.2% | 92.6% | 102% | 102% | 95.9% | 103% | 99.9% | 107% | 77.3% | 104% | 94.7% | 93.5% | 74.2% | 74.1% | 103% | 97.6% | 104% | 102% | 88.5%
3 | CC(C)Cc1sc(N)nc1-c1ccc(P(=O)(O)O)o1 | 111% | 97.4% | 102% | 94.4% | 80.3% | 134% | 97% | 102% | 113% | 104% | 97.6% | 85.3% | 95.2% | 101% | 86.6% | 106% | 98.3% | 106% | 98.7% | 104%
4 | Cl.OC[C@H]1NC[C@@H](O)[C@@H](O)[C@@H]1O [1-Deoxymannojirimycin hydrochloride] | 99.5% | 93.4% | 102% | 94% | 95.6% | 115% | 88.3% | 96.3% | 104% | 105% | 108% | 89.9% | 109% | 87.2% | 96.2% | 105% | 96.3% | 98.7% | 110% | 89.5%
5 | CN(C)c1nc(O)c2[nH]cnc2n1 [2-Dimethylamino-6-hydroxypurine] | 101% | 104% | 97.7% | 99.3% | 103% | 96.1% | 65.7% | 104% | 91% | 66.9% | 97.2% | 100% | 86.9% | 99.4% | 113% | 104% | 90.8% | 94.8% | 99.9% | 98.2%
6 | O=C(O)c1cc2sccc2[nH]1 [4H-thieno[3,2-b]pyrrole-5-carboxylic acid] | 101% | 99.3% | 110% | 95.4% | 105% | 103% | 94.7% | 89.3% | 112% | 109% | 104% | 92.6% | 99.5% | 92.6% | 101% | 108% | 96.4% | 90.4% | 97% | 107%
